Legend:
[1] = test system: T-ALL patient derived xenograft models; conditions: cited from earlier work
[2] = test system: lymphoid malignancies; conditions: clinical studies; cited from earlier work
[3] = test system: animal models of arthritis and lupus; conditions: mice; cited from earlier work
[4] = test system: allogeneic T-cell; conditions: in vitro; cited from earlier work
[5] = test system: lymphocyte proliferation; conditions: in vitro; cited from earlier work
[6] = test system: H146 cells; assay: H146 cell viability using MTT assay; type: cell-based; conditions: Homo sapiens, NCI-H146, 48 h exposure
Summary of the method: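 Cells were cultured in RPMI 1640 with 10% heat-inactivated FBS, penicillin/streptomycin and 2 mM L-glutamine, then exposed 48 h to 9 concentrations (3.16-fold series, triplicates). MTT was added for 4 h and formazan solubilised overnight in SDS/HCl. OD was read at 540 nm and IC50 fitted with four-parameter curves.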

[7] = biological target: His-His-(EK)-hsBCLXL(2-197)[N197C] (Homo sapiens (Human), UniProt Q07817, N197C); assay: Fluorescence quenching assay; type: binding; conditions: 1 nM Cy5-labelled protein, 400 nM PUMA peptide, 2 hours at 23° C.; KI determined from IC50
Chain of His-His-(EK)-hsBCLXL(2-197)[N197C] (Q07817 2-197 N197C): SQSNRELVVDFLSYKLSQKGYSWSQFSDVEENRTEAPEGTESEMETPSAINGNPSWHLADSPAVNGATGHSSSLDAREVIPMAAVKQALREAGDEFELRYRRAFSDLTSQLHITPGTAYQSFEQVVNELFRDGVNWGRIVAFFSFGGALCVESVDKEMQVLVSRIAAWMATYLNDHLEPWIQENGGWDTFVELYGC
Summary of the method: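 Cy5-labelled BCL-xL (1 nM) with TQ5WS quencher-labelled PUMA peptide (400 nM); displacement by compound (11-point dilution) raises fluorescence. Buffer 10 mM HEPES, 150 mM NaCl, 0.05% Tween 20, pH 7.4, 5% DMSO; 2 h at 23° C, Ex 620/Em 680 nm. Ki derived from IC50.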

[8] = test system: MOLT-4 cells; assay: MOLT-4 cell viability using MTT assay; type: cell-based; conditions: Homo sapiens, MOLT-4, 48 h, 48 h exposure
Procedure: MTT colorimetric assay is based on the mitochondrial reduction of tetrazolium salt by living cells.
Cells were cultured at 37° C. in a humidified atmosphere containing 5% CO2. […] At the end of incubation time, 15 μL of MTT solution (5 mg/ml) were added per well and the cells were incubated for another 4 h. […] IC50s were calculated using standard four-parametric curve fitting.

[9] = biological target: GST(1-218)-(FACTOR_XA)-hsBCLXL(2-209) (Homo sapiens (Human), UniProt Q07817); assay: Fluorescence polarisation assay; type: binding
Chain of GST(1-218)-(FACTOR_XA)-hsBCLXL(2-209) (Q07817 other isoform, or with tags, fused parts or gaps): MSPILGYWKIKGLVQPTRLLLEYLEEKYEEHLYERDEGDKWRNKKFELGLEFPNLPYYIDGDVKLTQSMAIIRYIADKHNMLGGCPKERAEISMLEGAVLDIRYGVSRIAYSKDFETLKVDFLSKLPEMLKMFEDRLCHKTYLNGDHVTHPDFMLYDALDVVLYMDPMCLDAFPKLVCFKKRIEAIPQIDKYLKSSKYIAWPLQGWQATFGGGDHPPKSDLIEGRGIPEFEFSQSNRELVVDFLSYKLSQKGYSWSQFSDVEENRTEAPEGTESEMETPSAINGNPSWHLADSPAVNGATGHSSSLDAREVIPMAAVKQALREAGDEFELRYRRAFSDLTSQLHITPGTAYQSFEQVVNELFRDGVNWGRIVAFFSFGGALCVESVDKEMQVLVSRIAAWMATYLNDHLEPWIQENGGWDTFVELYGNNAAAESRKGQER
Procedure: Fluorescence polarization measures the rotation of a fluorescing species in solution, the larger the molecule the more polarized the fluorescence emission.
(GST UniProtKB® primary accession number P08515 and BCLXL UniProtKB® primary accession number Q07817-1), • resulting in an increase in anisotropy. If a compound is added which competitively binds to the same site as the probe, thereby releasing it, anisotropy decreases due to the increased amount of free probe.
An 11-point serial dilution of each compound was prepared in DMSO, the final buffer conditions were 10 mM 4-(2-hydroxyethyl)-1-piperazineethanesulfonic acid [HEPES], 150 mM NaCl, 0.05% Tween 20, pH 7.4 and 5% DMSO. The final protein concentration in the assay was 20 nM with the fluorescent probe present at 10 nM. […] 1; 37 (WebServer issue): W441-W445.

[10] = test system: MOLT-4 xenografts; assay: Tumor regression study in MOLT-4 xenografts; type: in vivo, female NOD SCID mice; conditions: 5 mg/kg IV
Procedure: The in vivo therapeutic and pharmacodynamic effects of Bcl-xL-targeting small molecules were determined in MOLT-4 T-cell Acute Lymphoblastic Leukemia (T-ALL) model upon intravenous (IV) or oral (PO) administration.
MOLT-4 cells (ATCC No. CRL-1582) were cultured in RPMI supplemented with 10% FBS. Cells were re-suspended in 50% matrigel (BD Biosciences) and 0.1 mL containing 5×10^6 cells was subcutaneously inoculated into the right flank of female NOD SCID mice (Charles River). For efficacy studies, when tumors reached the appropriate volume, mice were randomized (7 animals per group) using Easy stat software. […] Mice body weight was monitored three times a week and tumor size was measured using electronic calipers. Tumor volume was estimated by measuring the minimum and maximum tumor diameters using the formula: (minimum diameter)^2(maximum diameter)/2. The last day with at least half of control animals still present in the study (day 31), tumor growth inhibition was calculated using the formula: […]
Response was evaluated as follows: CR (Complete Response) if tumor size was <25 mm^3 for at least three consecutive measurements, PR (Partial Response) if tumor size was comprised between 25 mm^3 and half of the starting size for at least three consecutive measurements. Mice were sacrificed at the first measurement for which tumor volume exceeded 2000 mm^3 or at the first signs of animal health deterioration.

[11] = test system: circulating platelets; assay: Pharmacodynamics: circulating platelets in MOLT-4-grafted mice; type: in vivo, female NOD SCID mice; conditions: after treatment discontinuation (data not shown)
Procedure: For pharmacodynamics studies, when tumors reached the appropriate volume, mice were randomized (3 animals per group) using Easy stat software. […] Tumor samples were collected 6 h after dosing and lysed (10 mM HEPES pH 7.4, 142.5 mM KCl, 5 mM MgCl2, 1 mM EDTA, 1% NP40, protease and phosphatase inhibitors cocktails—Calbiochem). Cleared lysates were prepared for immunodetection of cleaved PARP and Caspase 3 by using the MSD apoptosis panel whole cell lysate kit (MSD) in 96-well plates according to manufacturer's instructions, and were analyzed on the QuickPlex SQ 120. Whole blood samples were analyzed on the Hematology Analyzer Coulter Ac⋅T diff (Beckman Coulter).

[12] = test system: pre-clinical models of T-ALL and different types of solid tumors; conditions: cited from earlier work
[13] = test system: Molt-4; conditions: xenograft model Molt-4; cited from earlier work

Which results are given for CC1(C)CCC(c2ccc(Cl)cc2)=C(CN2CCN(c3ccc(C(=O)NS(=O)(=O)c4ccc(N[C@H](CCN5CCOCC5)CSc5ccccc5)c(S(=O)(=O)C(F)(F)F)c4)cc3)CC2)C1 [ABT-263]?
activity [1]: promising activity; antitumor activity [2]: objective antitumor activity

For CN(C)CC[C@H](CSc1ccccc1)Nc1ccc(S(=O)(=O)NC(=O)c2ccc(N3CCN(Cc4ccccc4-c4ccc(Cl)cc4)CC3)cc2)cc1[N+](=O)[O-] [ABT-737], which activity [1] is on record?
The activity was “promising activity”.

What about the disease severity [3] of the same compound?
The disease severity was “significant decrease in disease severity”.

What about the “allogeneic T-cell activation, proliferation, and cytotoxicity” value [4] of the same compound?
The value was “prevented allogeneic T-cell activation, proliferation, and cytotoxicity”.

What about the lymphocyte proliferation [5] of the same compound?
The lymphocyte proliferation was “potent inhibition of lymphocyte proliferation”.

Which results are given for Cc1c(Nc2nc3ccccc3s2)nnc2c1CCN2c1nc(C(=O)O)c(CCCOc2ccc(C#CCN(C)C)cc2F)s1 [Example 22, 2-{3-[(1,3-Benzothiazol-2-yl)amino]-4-methyl-5H,6H,7H-pyrrolo[2,3-c]pyridazin-7-yl}-5-(3-{4-[3-(dimethylamino)prop-1-yn-1-yl]-2-fluorophenoxy}propyl)-1,3-thiazole-4-carboxylic acid]?
IC50 [6]: 12.7 nM; Ki [7]: 0.025 nM; IC50 [8]: 3.42 nM; Ki [9]: 3 nM

With Cc1c(Nc2nc3ccccc3s2)nnc2c1ccn2-c1ccc(-c2cnn(CC34CC5CC(CC(C5)C3)C4)c2C)c(C(=O)O)n1 [Example 23] as the compound, how does the IC50 [6] read?
Its IC50 is 2.77 nM.

And the Ki [7]?
The Ki was 0.051 nM.

And the IC50 [8]?
Its IC50 is 0.948 nM.

What about the Ki [9] of the same compound?
The Ki was 1.1 nM.

Which “% CR” value ([10]; Q3D6) does the source give for Cc1c(Nc2nc3ccccc3s2)nnc2c1CCCN2c1ccc(-c2cnn(CC34CC5CC(CC(C5)C3)C4)c2C)c(C(=O)O)n1 [Example 24] here?
The value was 0%.

And the “% PR” value ([10]; Q3D6)?
The value was 71.4%.

What about the “% TGI (d31)” value ([10]; Q3D6, day 31) of the same compound?
The value was 78.7%.

What about the IC50 [6] of the same compound?
Its IC50 is 32.7 nM.

And the Ki [7]?
The Ki was 0.008 nM.

What about the platelets loss recovery [11] of the same compound?
The platelets loss recovery was “platelets loss was recovered after treatment discontinuation”.

What about the Ki [9] of the same compound?
The Ki was < 1 nM.

With Cc1c(Nc2nc3ccccc3s2)nnc2c1CCCN2c1nc(C(=O)O)c(CCCOc2ccc(C#CCN(C)C)cc2F)s1 [Example 27, 2-[3-(1,3-Benzothiazol-2-ylamino)-4-methyl-6,7-dihydro-5H-pyrido[2,3-c]pyridazin-8-yl]-5-[3-[4-[3-(dimethylamino)prop-1-ynyl]-2-fluoro-phenoxy]propyl]thiazole-4-carboxylic acid] as the compound, how does the IC50 [6] read?
Its IC50 is 6.53 nM.

And the Ki [7]?
The Ki was 0.0085 nM.

And the Ki [9]?
The Ki was < 1 nM.

What does the source list for CN(C)CC#Cc1ccc(OCCCc2sc(N3CCCc4c3nnc(Nc3nc5ccccc5s3)c4C3CC3)nc2C(=O)O)c(F)c1 [Example 30, 2-{3-[(1,3-Benzothiazol-2-yl)amino]-4-cyclopropyl-5H,6H,7H,8H-pyrido[2,3-c]pyridazin-8-yl}-5-(3-{4-[3-(dimethylamino)prop-1-yn-1-yl]-2-fluorophenoxy}propyl)-1,3-thiazole-4-carboxylic acid]?
IC50 [6]: 6.55 nM; Ki [7]: 0.0036 nM; IC50 [8]: 0.775 nM; Ki [9]: < 1 nM

What does the source list for Cc1c(Nc2nc3ccccc3s2)nnc2c1CCCCN2c1nc(C(=O)O)c(CCCOc2ccc(C#CCN(C)C)cc2F)s1 [Example 31, 2-{3-[(1,3-Benzothiazol-2-yl)amino]-4-methyl-5H,6H,7H,8H,9H-pyridazino[3,4-b]azepin-9-yl}-5-(3-{4-[3-(dimethylamino)prop-1-yn-1-yl]-2-fluorophenoxy}propyl)-1,3-thiazole-4-carboxylic acid]?
IC50 [6]: 88.2 nM; Ki [7]: 0.0082 nM; IC50 [8]: 14.8 nM; Ki [9]: < 1 nM

With Cc1c(Nc2nc3ccccc3s2)nnc2c1CCCN2c1nc(C(=O)O)c(CCCOc2ccc(CN)cc2F)s1 [Example 35, 5-{3-[4-(Aminomethyl)-2-fluorophenoxy]propyl}-2-{3-[(1,3-benzothiazol-2-yl)amino]-4-methyl-5H,6H,7H,8H-pyrido[2,3-c]pyridazin-8-yl}-1,3-thiazole-4-carboxylic acid] as the compound, how does the IC50 [6] read?
Its IC50 is 62.8 nM.

And the Ki [7]?
Its Ki is 0.0077 nM.

What about the IC50 [8] of the same compound?
The IC50 was 30.2 nM.

And the Ki [9]?
The Ki was < 1 nM.

Which results are given for Cc1c(Nc2nc3ccccc3s2)nnc2c1CCCN2c1nc(C(=O)O)c(CCCOc2ccc(CCCN(C)C)cc2F)s1 [Example 36, 2-{3-[(1,3-Benzothiazol-2-yl)amino]-4-methyl-5H,6H,7H,8H-pyrido[2,3-c]pyridazin-8-yl}-5-(3-{4-[3-(dimethylamino)propyl]-2-fluorophenoxy}propyl)-1,3-thiazole-4-carboxylic acid]?
IC50 [6]: 5.51 nM; Ki [7]: 0.0017 nM; Ki [9]: < 1 nM

For CN(C)CC#Cc1ccc(OCCCc2sc(N3CCc4cccc(C(=O)Nc5nc6ccccc6s5)c4C3)nc2C(=O)O)c(F)c1 [Example A-1155463], which in vivo activity [12] is on record?
Its in vivo activity is “exhibited in vivo activity”.

For Cc1c(-c2ccc(N3CCc4cccc(C(=O)Nc5nc6ccccc6s5)c4C3)nc2C(=O)O)cnn1CC12CC3CC(CC(C3)C1)C2 [Example A-1331852], which “in vitro and in vivo activity” value [13] is on record?
Its value is “in vitro and in vivo activity”.

And the in vivo activity [12]?
Its in vivo activity is “exhibited in vivo activity”.
